{"source": "patent US20210100781A1", "about": "“TUMOR SUPPRESSION” (Kyoto University, priority 2019, published 2021)", "key": {"lytic genes": {"tested_on": "lytic genes", "experiment": "Suppression of lytic induction in KSHV+ PEL cells (RT-PCR and Western blotting)", "type": "cell-based", "conditions": "BC-3 cells and BCBL-1 cells undergoing lytic induction, 48 hours", "text": "Both of the BC-3 cells and the BCBL-1 cells are cell lines of KSHV^+ PEL cells. Regarding the BC-3 cells, it is known that TPA (12-O-tetradecanoylphorbol-13-acetate) and SB (sodium butyrate) cause cytokine stimulation, which results in the lytic induction. Further, regarding the BCBL-1 cells, it is known that VPA (valproic acid) causes cytokine stimulation, which results in the lytic induction.\nSuch cytokine stimulation was given to the BC-3 cells and the BCBL-1 cells, and the cells were cultured for 24 hours or 48 hours. Then, RNA of the same was collected, and was subjected to RT-PCR.\nEffects of the compound A (the compound A produced in Production Example 1, also described as “Cp. A”) were confirmed by using the same BC-3 cells and BCBL-1 cells as those in Reference Example 1.\nThe compound A was added to the BC-3 cells and the BCBL-1 cells undergoing lytic induction and cultured for 48 hours; then, the cultured cells were analyzed by RT-PCR and Western blotting."}, "KSHV [1]": {"tested_on": "KSHV", "experiment": "Suppression of viral replication: KSHV copy number by real-time PCR", "type": "cell-based", "conditions": "BCBL-1 cells undergoing lytic induction, 96 hours, compound increased to 5 μM and to 10 μM", "description": "Effects of the compound A on the KSHV copy number were analyzed by real-time PCR.\nThe compound A was added to the BCBL-1 cells undergoing lytic induction and cultured for 96 hours; then, DNA samples were collected and analyzed by real-time PCR."}, "BCBL-1 cells": {"tested_on": "BCBL-1 cells", "experiment": "Intraperitoneal administration to PEL xenograft mouse models", "type": "in vivo, mice (NOD/SCID mice)", "conditions": "300 mg/kg bw intraperitoneally three times a week, 45 days", "description": "BCBL-1 cells were intraperitoneally inoculated into immunodeficient mice (NOD/SCID mice) so that PEL xenograft models were produced. PEL refers to “primary effusion lymphoma”, as described above. The mice were divided into a compound A administered group and a control group. […] To the control group, PBS was administered intraperitoneally three times a week instead of the compound A. Exemplary results thereof are shown in FIG. 5."}, "KSHV [2]": {"tested_on": "KSHV", "experiment": "Viruses in ascites and plasma of PEL xenograft mice", "type": "in vivo, mice (NOD/SCID mice)", "conditions": "300 mg/kg bw intraperitoneally three times a week, 45 days", "description": "BCBL-1 cells were intraperitoneally inoculated into immunodeficient mice (NOD/SCID mice) so that PEL xenograft models were produced. PEL refers to “primary effusion lymphoma”, as described above.\nThe mice were divided into a compound A administered group and a control group. […] To the control group, PBS was administered intraperitoneally three times a week instead of the compound A. Exemplary results thereof are shown in FIG. 5.\nViruses in ascites and plasma of the above-described mice were detected."}, "E6 and E7 genes of HPV": {"tested_on": "E6 and E7 genes of HPV", "conditions": "known from WO2005/063293, WO2009/020198, Yamamoto et al. 2014; cited from earlier work"}}, "data": [{"smiles": "Fc1ccc(N2CCCCC2)c(NC(=S)c2ccncc2)c1", "note": "[compound A, N-[5-fluoro-2-(1-piperidinyl)phenyl]-4-pyridinethioamide]", "values": [{"measurement": "expression of the lytic genes at protein level (Western blotting)", "setting": "lytic genes", "result": "suppressed"}, {"measurement": "expression amount of lytic genes (RT-PCR)", "setting": "lytic genes; compound increased to 5 μM and to 10 μM", "result": "decreased"}, {"measurement": "virus copy number (real-time PCR)", "setting": "KSHV [1]", "result": "decreased"}, {"measurement": "amount of ascites", "setting": "BCBL-1 cells; vs control group (PBS)", "result": "significantly less"}, {"measurement": "enlarged spleen", "setting": "BCBL-1 cells; vs control group, data not shown", "result": "particularly suppressed"}, {"measurement": "amount of viruses in ascites", "setting": "KSHV [2]; ascites", "result": "significantly decrease"}, {"measurement": "amount of viruses in plasma", "setting": "KSHV [2]; plasma", "result": "significantly decrease"}, {"measurement": "expression of the E6 and E7 genes of HPV", "setting": "E6 and E7 genes of HPV", "result": "suppress"}, {"measurement": "p53 gene stabilization", "setting": "E6 and E7 genes of HPV", "result": "stabilize"}]}]}
